The conditions of test [1]: EP 484,281 and Eur. J. Immunol., 17, 1359 (1987); cited from earlier work.
Test [2] deals with retroviruses.

Where two headings read alike, the source gives them in different places.

[4'-hydroxy-MeLeu]^4 -cyclosporin A: the immunosuppressing nature result in test [1] is “not immunosuppressing”.

Regarding “[(R)-2-(N,N-Dimethylamino)ethylthio-Sar]^3 -[4'-hydroxy-MeLeu]^4 -cyclosporin A [Example 1]”, the effect of combination result in test [2] (combined with AZT, ddl, Saquinavir, Nevirapin, Ritonavir and/or ribavirin) is given as “synergistic effect”; in test [2] (combined with Indinavir), “additive effect”.
